Laboratory results from patent EP0531370B1, “INHIBITION OF VIRAL INFECTION” (priority 1990, dated 1991).
Read-outs that look alike come from different tables or passages of the source.

Experiments:
[1] = test system: retroviral vector pWET-TAC ψ2; experiment: Infection of NIH-3T3 cells by retroviral vector pWeT-TAC ψ2, count of G418-resistant colonies; assay type: cell-based; settings: for inhibition at 1000 µM / activity at 1000 µM: 1mM; for activity at 1000 µM / activity at 3000 µM / activity at 2000 µM: read-out: % of control colonies counted; for inhibition of G418-resistant colony formation (in words): concentrations of Table 1 (1mM to 3mM); for inhibition at 3000 µM / activity at 3000 µM: 3mM; for inhibition at 2000 µM / activity at 2000 µM: 2mM
[2] = test system: integration of foreign DNA into the genome; settings: calcium phosphate mediated DNA transfection; cited from earlier work
in vitro [3] = settings: human, t-cell line
MPSV^28 [4] = experiment: Southern hybridisation of genomic DNA of NIH/3T3 cells after infection with MPSV^28; assay type: cell-based, murine myeloproliferative sarcoma virus; settings: 2mM, most obvious at 24 and 48 hours after infection
MPSV^28 [5] = experiment: Dot-blot analysis of high molecular weight DNA of HL-60 cells after infection with MPSV^28; assay type: cell-based, murine myeloproliferative sarcoma virus; settings: 1.5mM, 72 hours after infection
Experimental: In this case cells were pretreated with 0.4% DMSO and […] polybrene for 24 hours. At the time of infection this medium was removed and fresh medium containing the same concentration of DMSO and polybrene, plus 5 x 10^5 c.f.u. of the vector were added to 10^7 cells either in the presence (+) or absence (-) of the inhibitor (5 x 10^6 cells for each condition). 24 hours after infection the medium was removed and cells were placed in fresh medium containing no DMSO or polybrene. Cells were incubated in this medium for another 48 hours before being harvested (approximately 2 x 10^7 cells with, and 2 x 10^7 without the inhibitor).

T-cell adapted HIV-1 = experiment: microbe, parasite or virus in culture; assay type: cell-based; settings: for minimal effective concentration: Human immunodeficiency virus 1, T-cell, 336 h, read-out: Minimum Antiviral Concentration; for Therapeutic Index: T-Cell Line with T-virus; for antiviral activity (P24 antigen level in supernatant): virus T and the T-cell line, Day 14
in vitro [6] = settings: human, pbmc
monocyte adapted HIV-1 = experiment: microbe, parasite or virus in culture; assay type: cell-based; settings: for minimal effective concentration: Human immunodeficiency virus 1, Monocyte, 336 h, read-out: Minimum Antiviral Concentration; for Therapeutic Index: PBMC's with M-virus, * partial inhibition only; for virus production (P24 antigen level in supernatant): virus M and PBMC's, Day 14, all concentrations tested
[7] = test system: phytohaemagglutinin (PHA) stimulated peripheral blood mononuclear cells (PBMC); experiment: Cell toxicity assay, trypan blue exclusion (Example 6), PBMC; settings: 150µM; PBMC's; Days 1, 6 and 10
[8] = test system: AZT-resistant HIV isolate; assay type: cell-based, HIV-1
[9] = test system: continuous human T-cell line; experiment: Cell toxicity assay, trypan blue exclusion (Example 6), T-cell line; settings: 150µM, Days 1, 6 and 10
[10] = test system: monocyte adapted laboratory strain of HIV; assay type: cell-based, HIV-1; settings: monocyte line, Day 7
in vitro [11] = settings: human
vaccinia virus = settings: BSC40 cells, 24 hours at 37°C, cited from earlier work
[12] = NIH3T3, NIH-3T3, G418-resistant colonies, read-out: % inhibition achieved
[13] = NIH3T3, NIH-3T3, G418-resistant colonies

## NC(=O)c1cccc(NC=O)c1 [3-N-formylaminobenzamide]
[1]; [12]
  inhibition at 1000 µM: 64%
[1]; [13]
  activity at 1000 µM: 36%
[1]
  inhibition of G418-resistant colony formation (in words): even greater inhibition

## NC(=O)c1cccc(N)c1 [3-aminobenzamide]
[2]
  integration of foreign DNA into the genome: blocked
[1]; 1mM inhibitor
  inhibition of the formation of G418 resistant colonies: small degree of inhibition
[1]; [12]
  inhibition at 3000 µM: 45%
[1]; [13]
  activity at 3000 µM: 55%
[1]; NIH3T3, read-out: inhibition of the formation of G418 resistant colonies
  inhibition at 3000 µM: 50%
[1]; NIH3T3, 5mM, read-out: inhibition of the formation of G418 resistant colonies
  inhibition at 5000 µM: 60%
[1]
  inhibition of G418-resistant colony formation (in words): significant degree of inhibition

## Nc1cccc(C(=O)O)c1 [3-aminobenzoic acid, reference compound]
[1]; [12]
  inhibition at 3000 µM: 10%
[1]; [13]
  activity at 3000 µM: 90%
[1]
  inhibition of G418-resistant colony formation (in words): did not inhibit

## COc1cccc(C(N)=O)c1 [3-methoxybenzamide]
In vitro [3]
  MNTC: 3 mM
MPSV^28 [4]
  appearance of complete proviral DNA in the genomic DNA: inhibited
MPSV^28 [5]
  appearance of the proviral DNA: inhibited
[2]
  integration of foreign DNA into the genome: blocked
T-cell adapted HIV-1
  minimal effective concentration: 0.19 µM
  Therapeutic Index: >15 800
  antiviral activity (P24 antigen level in supernatant): showed particular activity
In vitro [6]
  MNTC: 3 mM
[1]; [12]
  inhibition at 2000 µM: 82%
[1]; [13]
  activity at 2000 µM: 18%
[1]
  inhibition of G418-resistant colony formation (in words): very effective
Monocyte adapted HIV-1
  minimal effective concentration: 0.19 µM
  Therapeutic Index: >15 800*
  virus production (P24 antigen level in supernatant): partially inhibited virus production

## NC(=O)c1ccc(N)cc1 [4-aminobenzamide, reference compound]
[1]; [12]
  inhibition at 3000 µM: 12%
[1]; [13]
  activity at 3000 µM: 88%
[1]
  inhibition of G418-resistant colony formation (in words): did not inhibit

## NC(=O)c1ccc(NC=O)cc1 [4-formylaminobenzamide, reference compound]
[1]; [12]
  inhibition at 1000 µM: 8%
[1]; [13]
  activity at 1000 µM: 92%
[1]
  inhibition of G418-resistant colony formation (in words): did not inhibit

## COc1ccc(C(N)=O)cc1 [4-methoxybenzamide, reference compound]
[1]; [12]
  inhibition at 2000 µM: 15%
[1]; [13]
  activity at 2000 µM: 85%
[1]
  inhibition of G418-resistant colony formation (in words): did not inhibit

## Cc1cn([C@H]2C[C@H](N=[N+]=[N-])[C@@H](CO)O2)c(=O)[nH]c1=O [AZT, 3'-azido-2',3'-dideoxythymidine, reference compound]
[7]
  toxicity (viable counts): non-toxic
In vitro [3]
  MNTC: 1 mM
[8]
  virus inhibition (supernatant p24 antigen): inhibited completely
  virus suppression (supernatant p24 antigen): did not suppress the virus
T-cell adapted HIV-1
  minimal effective concentration: 0.007 µM
  Therapeutic Index: 142 900
  antiviral activity (P24 antigen level in supernatant): inhibited virus with a good dose response
In vitro [6]
  MNTC: 1 mM
[9]
  toxicity (viable counts): non-toxic
[10]; 0.15µM
  antiviral activity (supernatant p24 antigen): significant antiviral activity
Monocyte adapted HIV-1
  minimal effective concentration: 0.007 µM
  Therapeutic Index: 142 900
  virus production (P24 antigen level in supernatant): inhibited virus with a good dose response

## O=C1NC(CCCl)Oc2ccccc21 (stereo not drawn) [Chlorthenoxazine, chlorthenoxazine]
[8]; 0.15µM, PBMC's, Day 7, no smooth dose response
  antiviral activity (supernatant p24 antigen): possibly active
In vitro [11]
  viability at 336 h: > 50%
[10]; concentrations tested 150 to 0.015µM
  antiviral activity (supernatant p24 antigen): active and has a clear dose response

## NC(=O)c1cccnc1 [nicotinamide]
Vaccinia virus; 20mM
  viral replication: affected
Vaccinia virus; 60mM
  decrease of viral replication: greater than 99%
